Experimental data: PubChem BioAssay (NCI)
Several values for one entry are separate records, joined by “and”; a condition that tells them apart may be missing. Equal entries are not always repeated.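 Five concentrations, 48 hours, 96-well plates. At the GI50, growth is halved. TGI: total growth inhibition.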 Where a SMILES comes first, the peptide text is derived from it. [ ]: non-standard residue; d: D form. The star is where a group is joined. Phe(4-NO2) = N[CH](Cc1ccc([N+](=O)[O-])cc1)C(=O)O; Boc = CC(C)(C)OC(=O)*

Columns and labels:
Assay in all cases: inhibition of tumour cell growth, NCI panel, 48 h
[1] = tested on: A549 NSCLC
[2] = tested on: HCC-2998 colon
[3] = tested on: OVCAR-4 ovarian
[4] = tested on: ACHN renal
[5] = tested on: SK-MEL-2 melanoma
[6] = tested on: 786-0 renal
[7] = tested on: UACC-257 melanoma
[8] = tested on: OVCAR-3 ovarian
[9] = tested on: NCI-H226 lung
[10] = tested on: MCF7 breast
[11] = tested on: MDA-MB-231 breast

Row | SMILES | TGI [1] | TGI [2] | TGI [3] | TGI [4] [µM] | TGI [5] | TGI [6] | TGI [7] | TGI [8] | TGI [9] | TGI [10] | TGI [11] | GI50 [11] | GI50 [1] [µM] | GI50 [2] [µM] | GI50 [3] [µM] | GI50 [4] [µM] | GI50 [5] [µM] | GI50 [7] [µM] | GI50 [8] [µM] | GI50 [9] [µM]
1 | CC1=C(C(=O)Nc2ccccc2)C2(CCCCC2)C(C#N)=C(SCC(=O)Nc2ccc(Br)cc2)N1 | 22.3 µM | 10.4 µM | > 75.2 µM | 19.8 | 6.6 µM | 13.3 µM | > 43.4 µM | 15 µM | 23 µM | > 47.9 µM | 27.1 µM | – | – | – | – | – | – | – | – | –
2 | CC(=O)Nc1c(C)cc2c(nc3n2CCC3O)c1[N+](=O)[O-] (configuration not stated) | > 100 µM | > 100 µM | > 100 µM | > 100 | > 100 µM | > 100 µM | > 100 µM | > 100 µM | > 100 µM | > 100 µM | > 100 µM | – | – | – | – | – | – | – | – | –
3 | COC(=O)C1OC(O[C@H]2CC[C@]3(C)[C@H]4CC=C5[C@@H]6CC(C)(C)CC[C@]6(C(=O)OC6OCC(O)C(O)C6OC6OC(C)C(OC7OCC(O)C(O)C7O)C(O)C6O)CC[C@@]5(C)[C@]4(C)CC[C@H]3C2(C)C)C(O)C(O)C1O (some centres not stated) | 33 µM and 41 µM | 25.4 µM and 29.5 µM | 34.3 µM and 29.8 µM | – | 31.8 µM and 34.7 µM | 29.2 µM and 32.4 µM | 27.4 µM and 29.7 µM | 97.6 µM and > 100 µM | 37.7 µM and 37.2 µM | 27.2 µM and 25.7 µM | 20.1 µM and 12.6 µM | 7.51 µM and 2.75 µM | – | – | – | – | – | – | – | –
4 | CC(C)NC(=O)CN1CCN(c2c(O)c3c(c(O)c2Cl)C(=O)C=CC3=O)CC1 | 20.3 µM | 10 µM | 3.12 µM | 4.9 | 3.1 µM | 6.14 µM | 3.25 µM | 2.97 µM | 41.5 µM | 3.47 µM | 4.26 µM | – | – | – | – | – | – | – | – | –
5 | CCOC(=O)c1ccc(N=c2sc3ccccc3nc2Nc2ccc(C(=O)OCC)cc2)cc1 | > 100 µM | > 100 µM | > 100 µM | > 100 | > 100 µM | 64.8 µM | > 100 µM | – | > 100 µM | – | > 100 µM | – | – | – | – | – | – | – | – | –
6 | C=C1C2C[C@@H]3O[C@H]4C[C@H]5O[C@@]6(C[C@@H]7O[C@]8(C[C@H](C)[C@@H]9O[C@@H]%10CC(CO)O[C@@H]%10C[C@@H]9O8)C[C@H](C)[C@@H]7O6)C[C@H]5O[C@H]4[C@H](C)[C@H]3OC(=O)C[C@H]3CC[C@@H]4OC5[C@H]6O[C@]7(CC[C@H]8CC(=C)[C@H](CC[C@@H](C[C@H]1C)O2)O8)CC6O[C@@H]5[C@@H](O7)[C@H]4O3 (some centres not stated) | 0.408 µM | – | > 1 µM | > 1 | > 1 µM | > 0.413 µM | > 1 µM | > 1 µM | 0.00022 µM | – | > 1 µM | – | – | – | – | – | – | – | – | –
7 | COc1cc2c(cc1OCCCC(=O)Nc1ccc3ccc4cccc5ccc1c3c45)N=C[C@@H]1CCCN1C2=O | – | < 0.0157 µM | 10.1 µM | > 100 | < 0.01 µM | – | 0.104 µM | 0.518 µM | < 0.0243 µM | 0.297 µM | 0.051 µM | 0.0135 µM | < 0.021 | < 0.01 | < 0.01 | 0.044 | < 0.01 | 0.0368 | 0.197 | < 0.0109
8 | COc1ccc(/C=C2\CCC(C)C3=C2N=c2s/c(=C/c4cccc(Br)c4)c(=O)n2C3c2ccc(OC)c(OC)c2)cc1OC (configuration not stated) | > 100 µM | – | > 100 µM | > 100 | > 100 µM | > 100 µM | > 100 µM | – | – | > 100 µM | > 100 µM | – | – | – | – | – | – | – | – | –
9 | CNC(=O)CCC(NC(=O)OC(C)(C)C)C(=O)NC(Cc1ccc([N+](=O)[O-])cc1)C(=O)NCC(=O)NC (configuration not stated) (Boc-Glu(NHMe)-[Phe(4-NO2)]-Gly-NHMe; configuration not given here) | > 100 µM | > 100 µM | > 100 µM | > 100 | – | > 100 µM | – | > 100 µM | > 100 µM | > 100 µM | > 100 µM | – | – | – | – | – | – | – | – | –
10 | Cc1ccc2c(c1)-c1nc(N)c(C#N)c(-c3ccccc3)c1CCS2(=O)=O | > 100 µM | > 100 µM | 41.8 µM | > 100 | > 100 µM | 44.1 µM | > 100 µM | > 100 µM | 78.5 µM | – | > 100 µM | – | – | – | – | – | – | – | – | –
11 | O=C(NCCCCCCNC(=O)c1cc(-c2ccccc2)nc2ccccc12)c1cc(-c2ccccc2)nc2ccccc12 | > 100 µM | – | > 100 µM | > 100 | – | > 100 µM | > 100 µM | > 100 µM | > 100 µM | > 100 µM | > 100 µM | – | – | – | – | – | – | – | – | –
12 | O=C1c2ccc(O)c(O)c2C(=O)c2c(O)ccc(O)c21 | 50.3 µM | 47.9 µM | 6.53 µM | 52.5 | 66.5 µM | > 100 µM | 49.3 µM | 49.7 µM | 50.5 µM | – | – | – | – | – | – | – | – | – | – | –
13 | C[C@@H]1CC[C@@H]2[C@@H](C1)O[C@@H]([C@H](C)OCc1ccccc1)SC2(C)C | > 100 µM | 31.8 µM | > 100 µM | 37.2 | 33 µM | 62.1 µM | 73.3 µM | – | 33 µM | 31.5 µM | 40.1 µM | – | – | – | – | – | – | – | – | –
14 | COc1ccc2nc(-c3ccc(O)cc3)sc2c1 | > 100 µM | – | 44.5 µM | 32.5 | > 100 µM | 29.1 µM | 39 µM | 36.2 µM | 45.8 µM | > 100 µM | 46.9 µM | – | – | – | – | – | – | – | – | –
15 | CO/N=C(\C)c1cccc(Nc2c3ccccc3nc3occc23)c1 | 57.3 µM | 20.4 µM | 18 µM | – | 15.5 µM | 29.7 µM | 25.6 µM | 19 µM | 33.7 µM | 28.6 µM | 26.1 µM | – | – | – | – | – | – | – | – | –
16 | O=C(Nc1nc(C23CC4CC(CC(C4)C2)C3)cs1)c1cc2ccccc2oc1=O | > 100 µM | > 100 µM | > 100 µM | > 100 | – | > 100 µM | > 100 µM | > 100 µM | > 100 µM | > 100 µM | > 100 µM | – | – | – | – | – | – | – | – | –
17 | Cc1nc2c(=O)n(C)ncc2[nH]1 | > 100 µM | – | – | > 100 | > 100 µM | > 100 µM | > 100 µM | > 100 µM | > 100 µM | > 100 µM | > 100 µM | – | – | – | – | – | – | – | – | –
18 | COI1NC(=O)c2ccccc21 | > 100 µM | – | > 100 µM | > 100 | > 100 µM | > 100 µM | – | > 100 µM | > 100 µM | > 100 µM | > 100 µM | – | – | – | – | – | – | – | – | –
19 | CCCC(=O)OC1C(CO)OC(n2cc(F)c(=O)[nH]c2=O)C1F (configuration not stated) | > 100 µM | – | > 100 µM | > 100 | > 100 µM | > 100 µM | > 100 µM | > 100 µM | > 100 µM | > 100 µM | – | – | – | – | – | – | – | – | – | –
